In patent US7244727B2, “Fused bicyclic nitrogen-containing heterocycles” (Japan Tobacco Inc., priority 2002, dated 2007):
pIC50: −log10 of the molar value.

Molecular target: T1, human DGAT1 (Homo sapiens, UniProt O75907)
T1 construct: made in house; host or cells: insect cells (sf9, sf21 or High Five) infected with baculovirus; total cell membranes
T1 sequence (O75907 1-488): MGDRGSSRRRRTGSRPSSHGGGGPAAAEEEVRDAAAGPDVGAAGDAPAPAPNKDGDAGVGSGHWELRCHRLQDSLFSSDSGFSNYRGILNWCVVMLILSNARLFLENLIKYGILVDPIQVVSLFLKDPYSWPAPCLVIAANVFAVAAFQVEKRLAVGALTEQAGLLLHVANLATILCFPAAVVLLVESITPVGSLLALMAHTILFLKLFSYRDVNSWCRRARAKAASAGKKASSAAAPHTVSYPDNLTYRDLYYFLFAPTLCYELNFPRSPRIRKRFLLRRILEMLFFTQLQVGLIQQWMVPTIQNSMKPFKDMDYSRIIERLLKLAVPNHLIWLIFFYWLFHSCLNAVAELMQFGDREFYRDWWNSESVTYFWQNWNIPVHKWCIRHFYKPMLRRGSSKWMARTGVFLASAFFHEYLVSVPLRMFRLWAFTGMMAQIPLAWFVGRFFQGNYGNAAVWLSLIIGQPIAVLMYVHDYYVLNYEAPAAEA
Assay: DGAT Scintillation Proximity Assay (SPA) with membranes of insect cells expressing human flagtag DGAT1
Format: biochemical
Settings: read-out: hDGAT1 IC50
Description: In such an assay human DGAT1 is cloned from a human liver cDNA library. PCR is used to add a restriction site and flag epitope at the most 5′ end and a restriction site at the 3′ end of the sequence. Thereafter, human flagtag (FT) DGAT1 baculovirus may be generated using a Bac-to-Bac Baculovirus Expression System® (Invitrogen). Insect cells (e.g., sf9, sf2 1, or High Five) are infected for 24 to 72 h and collected by centrifugation. Cell pellets are resuspended in homogenization buffer and lysed using a homogenization device, such as a Microfluidizer. Total cell membranes are collected by ultracentrifugation at 45,000 rpm for 1 h.
A small aliquot (0.2 μg/well) of membrane is incubated with 10 μM compound or mercuric chloride (as positive control for inhibition) in the presence of enzyme substrate, dioleoyl glycerol (200 μM) in 384 well plates, final volume 50 gL per well. […] The reaction is stopped by adding Wheat Germ Agglutinin (WGA) SPA beads (0.2 mg) in mercuric chloride. Cell membranes are allowed to couple to the beads overnight. The signal can be measured using, for example, a Chemiluminescence Image Plate Reader (CLIPR) or TopCount device.

| pIC50 | SMILES |
| --- | --- |
| 7.00 to 8.00 | Cc1nc(N)c2c(n1)OC(C)(C)C(c1ccc([C@H]3CC[C@H](C(C)C(=O)O)CC3)cc1)=C2 (stereo partly drawn) [Example 10-30] |
| 7.00 to 8.00 | CC1(C)Oc2nc(C(F)(F)F)nc(N)c2N=C1c1ccc2c(c1)CCC21CCC(C(C)(C)C(=O)O)CC1 (stereo not drawn) [Example 10-26] |
| 7.00 to 8.00 | CC1(C)Oc2nc(C(F)(F)F)nc(N)c2N=C1c1ccc(C2CCC(C3(C(=O)O)CC3)CC2)cc1 (stereo not drawn) [Example 10-19] |
| 7.00 to 8.00 | CCc1nc(N)c2c(n1)OC(C)(C)C(c1ccc(C3CCC(CC(=O)O)CC3)cc1)=N2 (stereo not drawn) [Example 10-18] |
| 7.00 to 8.00 | Cc1nc(N)c2c(n1)OC(C)(C)C(c1ccc(C3CCC(C4(C(=O)O)CC4)CC3)cc1)=N2 (stereo not drawn) [Example 10-21] |
| 7.00 to 8.00 | CCc1nc(N)c2c(n1)OC(C)(C)C(c1ccc([C@H]3CC[C@H](CC(=O)O)CC3)cc1)N2 (stereo partly drawn) [Example 10-23] |
| 7.00 to 8.00 | CC1(C)Oc2ncnc(N)c2N=C1c1ccc(C2CCC(c3cc(O)on3)CC2)cc1 (stereo not drawn) [Example 10-9] |
| 7.00 to 8.00 | CC1(C)Oc2ncnc(N)c2N=C1c1ccc(C2CCC(c3cc(O)no3)CC2)cc1 (stereo not drawn) [Example 10-8] |
| > 8.00 | CC1(C)Oc2ncnc(N)c2N=C1c1ccc(C2CCC(C(C)(C)C(=O)O)CC2)cc1 (stereo not drawn) [Example 10-3] |
| 7.00 to 8.00 | CCC(C(=O)O)C1CCC(c2ccc(C3=Nc4c(N)nc(C)nc4OC3(C)C)cc2)CC1 (stereo not drawn) [Example 10-27] |
| 7.00 to 8.00 | Cc1nc(N)c2c(n1)OC(C)(C)C(c1ccc3c(c1)CCC31CCC(C3(C(=O)O)CC3)CC1)=N2 (stereo not drawn) [Example 10-24] |
| 7.00 to 8.00 | CC1(C)Oc2nc(C(F)(F)F)nc(N)c2N=C1c1ccc2c(c1)CCC21CCC(C2(C(=O)O)CC2)CC1 (stereo not drawn) [Example 10-25] |
| 7.00 to 8.00 | CC1(C)Oc2ncnc(N)c2N=C1c1ccc(C2CCC3(CC2)CC3C(=O)O)cc1 (stereo not drawn) [Example 10-4] |
| 7.00 to 8.00 | CC1(C)Oc2ncnc(N)c2N=C1c1ccc2c(c1)CCCC21CCC(C2(C(=O)O)CC2)CC1 (stereo not drawn) [Example 10-12] |
| 7.00 to 8.00 | Cc1nc(N)c2c(n1)OC(C)(C)C(c1ccc(C3CCC(C(C)(C)C(=O)O)CC3)cc1)=N2 (stereo not drawn) [Example 10-14] |
| > 8.00 | CC1(C)Oc2ncnc(N)c2N=C1c1ccc2c(c1)CCC21CCC(CC(=O)O)CC1 (stereo not drawn) [Example 10-10] |
| 7.00 to 8.00 | Cc1nc(N)c2c(n1)OC(C)(C)C(c1ccc3c(c1)CCC31CCC(C(C)(C)C(=O)O)CC1)=N2 (stereo not drawn) [Example 10-16] |
| 7.00 to 8.00 | CC1(C)Oc2ncnc(N)c2N=C1c1ccc(C2CCC(C3(C(=O)O)CC3)CC2)cc1 (stereo not drawn) [Example 10-5] |
| > 8.00 | CC1(C)Oc2ncnc(N)c2N=C1c1ccc2c(c1)CCC21CCC(C(C)(C)C(=O)O)CC1 (stereo not drawn) [Example 10-13] |
| 7.00 to 8.00 | CC1(C)Oc2ncnc(N)c2N=C1c1ccc2c(c1)C(C)(C)CCC21CCC(CC(=O)O)CC1 (stereo not drawn) [Example 10-11] |
| > 8.00 | CC(C(=O)O)C1CCC2(CCc3cc(C4=Nc5c(N)nc(C(F)(F)F)nc5OC4(C)C)ccc32)CC1 (stereo not drawn) [Example 10-17] |
| > 8.00 | CCC(C(=O)O)C1CCC(c2ccc(C3=Nc4c(N)nc(C(F)(F)F)nc4OC3(C)C)cc2)CC1 (stereo not drawn) [Example 10-28] |
| 7.00 to 8.00 | Cc1nc(N)c2c(n1)OC(C)(C)C(c1ccc(CC3CCC(C(=O)O)CC3)cc1)=N2 (stereo not drawn) [Example 10-29] |
| > 8.00 | CC(C(=O)O)C1CCC(c2ccc(C3=Nc4c(N)nc(C(F)(F)F)nc4OC3(C)C)cc2)CC1 (stereo not drawn) [Example 10-15] |
| 7.00 to 8.00 | Cc1nc(N)c2c(n1)OC(C)(C)C(c1ccc([C@H]3CC[C@H](CC(=O)O)CC3)c(C)c1)=N2 [Example 10-22] |
| 7.00 to 8.00 | CC1(C)Oc2ncnc(N)c2N=C1c1ccc(C2CCC(c3cc(O)[nH]n3)CC2)cc1 (stereo not drawn) [Example 10-7] |
| 7.00 to 8.00 | CC1(C)Oc2nc(C(F)(F)F)nc(N)c2N=C1c1ccc(C2CCC(C(C)(C)C(=O)O)CC2)cc1 (stereo not drawn) [Example 10-20] |

More lines, now with the values behind:

| SMILES | pIC50 |
| --- | --- |
| CC1(C)Oc2ncnc(N)c2N=C1c1ccc(C2CCC(N3CCCC3)CC2)cc1 (stereo not drawn) [Example 2-89] | < 7.00 |
| Nc1ncnc2c1N=C(c1ccc(Br)s1)CO2 [Example 1-24] | < 7.00 |
| CN1CCN(C(=O)C=C2CCC(c3ccc(C4=Nc5c(N)ncnc5OC4(C)C)cc3)CC2)CC1 (stereo not drawn) [Example 2-50] | 7.00 to 8.00 |
| CC1(C)Oc2ncnc(N)c2NC1c1ccc([C@H]2CC[C@H](CO)CC2)cc1 (stereo partly drawn) [Example 2-223] | < 7.00 |
| CC1(C)Oc2ncnc(N)c2N=C1c1ccc(C2CCNCC2)cc1 [Example 3-2] | < 7.00 |
| CC1(C)Oc2ncnc(N)c2N=C1c1ccc([C@H]2CC[C@H](CN3CCC(O)CC3)CC2)cc1 [Example 2-225] | < 7.00 |
| CC1(C)Oc2ncnc(N)c2NC1c1ccc([C@H]2CC[C@H](CCO)CC2)cc1 (stereo partly drawn) [Example 2-81] | < 7.00 |
| Cc1nc(N)c2c(n1)OC(C)(C)C(c1ccc([C@H]3CC[C@H](Cc4cc(O)[nH]n4)CC3)cc1)=N2 [Example 2-155] | 7.00 to 8.00 |
| CC1(C)Oc2ncnc(N)c2N=C1c1ccc([C@H]2CC[C@H](CN3CCC(O)(c4ccccc4)CC3)CC2)cc1 [Example 2-226] | < 7.00 |
| CC1(C)Oc2ncnc(N)c2N=C1c1ccc(N2CCC(Cc3ccccc3)CC2)cc1 [Example 4-2] | < 7.00 |
| CC1(C)Oc2ncnc(N)c2N=C1c1ccc2c(c1)CCC[C@]21CC[C@@H](CC(=O)O)CC1 [Example 8] | > 8.00 |
| CN1CCN(C[C@H]2CC[C@H](c3ccc(C4=Nc5c(N)ncnc5OC4(C)C)cc3)CC2)CC1 [Example 2-230] | 7.00 to 8.00 |
| Cc1nc(N)c2c(n1)OC(C)(C)C(c1ccc([C@H]3CC[C@H](Cn4oc(=O)[nH]c4=O)CC3)cc1)=N2 [Example 2-157] | > 8.00 |
| CC(C)(C)OC(=O)NS(=O)(=O)NC[C@H]1CC[C@H](c2ccc(C3=Nc4c(N)ncnc4OC3(C)C)cc2)CC1 [Example 2-125] | > 8.00 |
| CC1(C)Oc2ncnc(N)c2N=C1c1ccc([C@H]2CC[C@H](CNC(=O)CO)CC2)cc1 [Example 2-91] | 7.00 to 8.00 |
| Cc1nc(N)c2c(n1)OC(C)(C)C(c1ccc3c(c1)CC[C@]31CC[C@@H](CC(=O)O)CC1)=N2 [Example 8-6] | 7.00 to 8.00 |
| Cc1nc(N)c2c(n1)OC(C)(C)C(c1ccc([C@H]3CC[C@H](Cc4nc(=O)on4C)CC3)cc1)=N2 [Example 2-168] | 7.00 to 8.00 |
| Cc1nc(N)c2c(n1)OC(C)(C)C(c1ccc3c(c1)CCC31CCC([C@@H](C)C(=O)O)CC1)=N2 (stereo partly drawn) [Example 8-4] | 7.00 to 8.00 |

| SMILES | pIC50 |
| --- | --- |
| Cc1nc(N)c2c(n1)OC(C)(C)C(c1ccc(C3CCC(C(C)C(=O)O)CC3)cc1)=N2 (single isomer, unassigned) [Example 9] | 7.00 to 8.00 |
| Cc1nc(N)c2c(n1)OC(C)(C)C(c1ccc([C@H]3CC[C@H](CC(=O)O)CC3)cc1)C2 (stereo partly drawn) [Example 7-2] | 7.00 to 8.00 |
| COc1ccc2[nH]c(C[C@H]3CC[C@H](c4ccc(C5=Nc6c(N)ncnc6OC5(C)C)cc4)CC3)nc2c1 [Example 2-121] | 7.00 to 8.00 |
| CCC(C(=O)O)C1CCC(c2ccc(C3=Nc4c(N)ncnc4OC3(C)C)cc2)CC1 (stereo not drawn) [Example 10] | > 8.00 |
| CC1(C)Oc2ncnc(N)c2N=C1c1ccc(C2CCC(N3CCCCC3)CC2)cc1 (stereo not drawn) [Example 2-90] | < 7.00 |
| CC1(C)Oc2ncnc(N)c2N=C1c1ccc(C2CCC(=CC(=O)NCCO)CC2)cc1 (stereo not drawn) [Example 2-48] | 7.00 to 8.00 |
| CN(C)CCNC(=O)C=C1CCC(c2ccc(C3=Nc4c(N)ncnc4OC3(C)C)cc2)CC1 (stereo not drawn) [Example 2-51] | 7.00 to 8.00 |
| Nc1ncnc2c1N=C(c1ccccc1Br)CO2 [Example 1-5] | < 7.00 |
| Cc1ccc(C2=Cc3c(N)ncnc3OC2(C)C)cc1 [Example 7-3] | < 7.00 |
| CC1(C)Oc2ncnc(N)c2N=C1c1ccc([C@H]2CC[C@H](CO)CC2)cc1 [Example 2-216] | 7.00 to 8.00 |
| Cc1nc(N)c2c(n1)OC(C)(C)C(c1ccc([C@H]3CC[C@H](CC4=NS(=O)ON4)CC3)cc1)=N2 (stereo partly drawn) [Example 2-153] | > 8.00 |
| CC1(C)Oc2ncnc(N)c2N=C1c1ccc(C2CCC(=CC(N)=O)CC2)cc1 (stereo not drawn) [Example 2-46] | 7.00 to 8.00 |
| CC1(C)Oc2ncnc(N)c2N=C1c1ccc2c(c1)COC21CCC(CC(=O)O)CC1 (stereo not drawn) [Example 8-2] | 7.00 to 8.00 |
| Cc1nc(N)c2c(n1)OC(C)(C)C(c1ccc([C@H]3CC[C@H](CN4CCNC4=O)CC3)cc1)=N2 [Example 2-171] | < 7.00 |
| CN(C)C(=O)C=C1CCC(c2ccc(C3=Nc4c(N)ncnc4OC3(C)C)cc2)CC1 (stereo not drawn) [Example 2-44] | 7.00 to 8.00 |
| CN1CCN(C(=O)CC[C@H]2CC[C@H](c3ccc(C4=Nc5c(N)ncnc5OC4(C)C)cc3)CC2)CC1 [Example 2-181] | 7.00 to 8.00 |
| Cc1nc(N)c2c(n1)OC(C)(C)C(c1ccc([C@H]3CC[C@H](CN4CC(C)(C)C(O)C4=O)CC3)cc1)=N2 (stereo partly drawn) [Example 2-167] | 7.00 to 8.00 |
| CC(C)(C)OC(=O)N1CCN(C[C@H]2CC[C@H](c3ccc(C4=Nc5c(N)ncnc5OC4(C)C)cc3)CC2)CC1 [Example 2-242] | < 7.00 |
